Data reported in publication PMC2782674 (Biochemistry, 2009).
“Also recorded” adds a separate entry of the source. Like-named read-outs stand apart in the source and are kept apart here. Square brackets hold non-standard residues; d marks the D form. Peptide text beside a SMILES is read from it. Orn(N5-OH,N5-Ac) = CC(=O)N(O)CCC[C@H](N)C(=O)O

How the values were obtained:
B. cereus ATCC 14579 [1] = format: cell-based, Bacillus cereus
FpuA (Bc_4528) [2] = target: T1, FpuA (Bc_4528) (Bacillus cereus, UniProt Q817L3); conditions: pH 6.8
T1 sequence (Q817L3 19-324): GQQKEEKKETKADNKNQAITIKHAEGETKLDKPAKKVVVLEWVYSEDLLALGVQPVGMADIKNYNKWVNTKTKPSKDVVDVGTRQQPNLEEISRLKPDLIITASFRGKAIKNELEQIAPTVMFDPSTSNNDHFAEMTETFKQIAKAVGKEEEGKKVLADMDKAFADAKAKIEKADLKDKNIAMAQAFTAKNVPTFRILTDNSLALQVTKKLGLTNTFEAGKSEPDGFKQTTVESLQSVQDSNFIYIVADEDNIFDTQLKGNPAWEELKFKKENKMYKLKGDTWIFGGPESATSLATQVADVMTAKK

B. cereus ATCC 14579 [3] = format: cell-based, Bacillus cereus; remark: listed apart in the source
FpuA (Bc_4528) [4] = target: T1, FpuA (Bc_4528); format: binding, B. cereus ATCC 14579
FatB (Bc_5106) [5] = target: T2, FatB (Bc_5106) (Bacillus cereus, UniProt Q815N5); format: binding, B. cereus ATCC 14579
T2 sequence (Q815N5 24-338): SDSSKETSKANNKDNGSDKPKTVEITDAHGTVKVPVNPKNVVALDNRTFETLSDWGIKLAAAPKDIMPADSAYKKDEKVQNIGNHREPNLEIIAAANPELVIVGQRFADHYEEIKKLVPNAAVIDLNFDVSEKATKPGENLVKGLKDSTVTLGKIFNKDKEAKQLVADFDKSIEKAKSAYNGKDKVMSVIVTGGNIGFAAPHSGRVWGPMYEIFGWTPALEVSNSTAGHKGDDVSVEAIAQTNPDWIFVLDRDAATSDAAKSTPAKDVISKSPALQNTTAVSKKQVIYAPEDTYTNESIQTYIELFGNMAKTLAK

FeuA (Bc_3738) = target: T3, FeuA (Bc_3738) (Bacillus cereus, UniProt Q81A53); test: biochemical; format: binding, B. cereus ATCC 14579
T3 sequence (Q81A53 22-321): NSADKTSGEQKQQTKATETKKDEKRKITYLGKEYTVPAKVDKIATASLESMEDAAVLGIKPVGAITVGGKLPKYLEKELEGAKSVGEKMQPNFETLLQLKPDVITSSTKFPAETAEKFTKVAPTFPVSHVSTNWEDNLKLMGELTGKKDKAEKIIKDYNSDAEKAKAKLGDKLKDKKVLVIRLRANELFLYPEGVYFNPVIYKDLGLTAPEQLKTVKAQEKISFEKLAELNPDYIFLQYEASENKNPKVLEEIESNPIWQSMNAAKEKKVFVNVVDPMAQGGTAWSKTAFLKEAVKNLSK

YxeB (Bc_0383) = target: T4, YxeB (Bc_0383) (Bacillus cereus, UniProt Q81IK3); format: binding, B. cereus ATCC 14579; conditions: for Kd: pH 7
T4 sequence (Q81IK3 20-306): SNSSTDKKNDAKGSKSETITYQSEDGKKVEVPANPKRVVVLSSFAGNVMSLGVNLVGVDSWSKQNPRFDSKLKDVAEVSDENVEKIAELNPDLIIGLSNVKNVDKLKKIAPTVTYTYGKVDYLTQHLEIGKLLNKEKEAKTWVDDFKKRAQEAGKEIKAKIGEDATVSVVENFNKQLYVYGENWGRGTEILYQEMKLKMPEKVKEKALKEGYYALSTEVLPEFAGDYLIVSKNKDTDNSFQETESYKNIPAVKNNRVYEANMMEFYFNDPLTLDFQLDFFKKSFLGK

FatB (Bc_5106) [6] = target: T2, FatB (Bc_5106); conditions: pH 6.8

O=C(O)c1ccc(O)c(O)c1 [3,4-DHB, 3,4-dihydroxybenzoic acid]
effect on uptake of radioactive ferric PB (B. cereus ATCC 14579 [1]): inhibited
effect on uptake of radioactive ferric PB^ν (B. cereus ATCC 14579 [1]): inhibited
noncovalent complex with FpuA by ESI-MS (Molecular weight Measured) (FpuA (Bc_4528) [2]): not observed
Km (B. cereus ATCC 14579 [3]): 0.4 ± 0.1 µM
vmax (B. cereus ATCC 14579 [3]): 2.3 ± 0.1 pmol Fe mL^-1 min^-1
ligand recognition by FpuA (FpuA (Bc_4528) [4]): not specifically quenched

C[C@H]1OC(=O)[C@@H](NC(=O)CNC(=O)c2cccc(O)c2O)[C@@H](C)OC(=O)[C@@H](NC(=O)CNC(=O)c2cccc(O)c2O)[C@@H](C)OC(=O)[C@H]1NC(=O)CNC(=O)c1cccc(O)c1O [BB, bacillibactin]
ligand recognition by FatB (FatB (Bc_5106) [5]): binding incompatibility; also recorded: no affinity
Kd (FeuA (Bc_3738); pH 7): 59 nM

CC(=O)N(O)CCCCCNC(=O)CCC(=O)N(O)CCCCCNC(=O)CCC(=O)N(O)CCCCCN [DFO, desferrioxamine B]
change of YxeB fluorescence on binding (YxeB (Bc_0383)): increase of SBP fluorescence

O=C(N[C@H]1COC(=O)[C@@H](NC(=O)c2cccc(O)c2O)COC(=O)[C@@H](NC(=O)c2cccc(O)c2O)COC1=O)c1cccc(O)c1O [Ent, enterobactin]
Kd (FeuA (Bc_3738)): 36 nM

CC(=O)N([O-])CCC[C@@H]1NC(=O)CNC(=O)CNC(=O)CNC(=O)[C@H](CCCN([O-])C(C)=O)NC(=O)[C@H](CCCN([O-])C(C)=O)NC1=O.[Fe+3] [Fch, ferrichrome] (cyclo(GGG[Orn(N5-OH,N5-Ac)][Orn(N5-OH,N5-Ac)][Orn(N5-OH,N5-Ac)]))
noncovalent complex with FpuA by ESI-MS (Molecular weight Measured) (FpuA (Bc_4528) [2]): no protein-ligand complexes were detected
change of YxeB fluorescence on binding (YxeB (Bc_0383)): increase of SBP fluorescence
binding of the aposiderophore to FpuA (FpuA (Bc_4528) [4]): did not bind
unspecific protein emission quenching of FpuA (FpuA (Bc_4528) [4]): 10-20%

CC(=O)N(O)CCCCCNC(=O)CCC(=O)N(O)CCCCCNC(=O)CCC(=O)N(O)CCCCCN.[Fe+3] [FeDFO]
effect on transport of ^55FeFch (B. cereus ATCC 14579 [1]): inhibited
Kd (YxeB (Bc_0383)): 18 nM

CC(=O)N(O)CCC[C@@H]1NC(=O)CNC(=O)CNC(=O)CNC(=O)[C@H](CCCN(O)C(C)=O)NC(=O)[C@H](CCCN(O)C(C)=O)NC1=O.[Fe+3] [FeFch] (cyclo(GGG[Orn(N5-OH,N5-Ac)][Orn(N5-OH,N5-Ac)][Orn(N5-OH,N5-Ac)]))
effect on uptake of ^55FeDFO (B. cereus ATCC 14579 [1]): inhibited
Kd (YxeB (Bc_0383)): 30 nM

O=C(CC(O)(CC(=O)NCCCCNCCCNC(=O)c1ccc(O)c(O)c1)C(=O)O)NCCCCNCCCNC(=O)c1ccc(O)c(O)c1 [PB, petrobactin]
effect on incorporation of radioactive ferric Ent (B. cereus ATCC 14579 [1]): only slightly affected
effect on uptake of radioactive ferric 3,4-DHB (B. cereus ATCC 14579 [1]): inhibited
effect on uptake of radioactive ferric PB (B. cereus ATCC 14579 [1]): inhibited
effect on uptake of radioactive ferric PB^ν (B. cereus ATCC 14579 [1]): inhibited
noncovalent complex with FpuA by ESI-MS (Molecular weight Measured) (FpuA (Bc_4528) [2]): not observed
noncovalent complex with FatB by ESI-MS (Molecular weight Measured) (FatB (Bc_5106) [6]): not observed
Kd (FpuA (Bc_4528) [4]; pH 7): 23 nM

CC(=O)N(O)CCCNC(=O)CC(O)(CC(=O)NCCCN(O)C(C)=O)C(=O)O [Sch, schizokinen]
ligand recognition by FpuA (FpuA (Bc_4528) [4]): binding incompatibility

FeEnt
Kd (FeuA (Bc_3738); pH 7): 12 nM

ferric citrate
noncovalent complex with FpuA by ESI-MS (Molecular weight Measured) (FpuA (Bc_4528) [2]): no protein-ligand complexes were detected
ligand recognition by FatB (FatB (Bc_5106) [5]): no recognition
noncovalent complex with FatB by ESI-MS (Molecular weight Measured) (FatB (Bc_5106) [6]): no protein-ligand complexes were detected
ligand recognition by FpuA (FpuA (Bc_4528) [4]): no recognition
